Experimental data: US20230278981A1, “DICHLOROPHENOL HSD17B13 INHIBITORS AND USES THEREOF” (INIPHARM, INC., priority 2020, published 2023)

Target: HSD17B13 (Homo sapiens (Human), UniProt Q7Z5P4)
Assay: LC/MS estrone detection assay: conversion of estradiol to estrone by HSD17B13
Assay type: biochemical
Settings: 4 μM estradiol, 6 mM NAD+, 30 nM HSD17B13 enzyme (E. coli expressed His-tagged), 2 hours at 26.5° C.
Method: The liquid chromatography/mass spectrometry (LC/MS) estrone detection assay monitors the conversion of estradiol to estrone by HSD17B13. This assay was undertaken in a 96wp format (Eppendorf deep well Plate 96/500) in an 80 μl reaction volume containing: 4 μM of Estradiol (E2; Cayman; Ser. No. 10/006,315), 6 mM NAD+(Sigma; #N0623) and 30 nM HSD17B13 enzyme (in-house; E. coli expressed His-tagged, purified, soluble protein) in a reaction containing […] potassium phosphate buffer pH 7.4, with 0.5% vehicle (DMSO). Reactions were incubated for 2 hours at 26.5° C., and estradiol (E2) conversion to estrone (E1) was quantitated by LC-MS/MS based analyte detection for both E2 and E1 using LCMS grade reagents.
Reactions were terminated by the addition of two volumes of acetonitrile (MeCN; LCMS grade; CAS #75/05/8) containing deuterated (D4)-E1 used as internal standard (Clear Synth; #CS-T-54273; 500 ng/mL final concentration). Samples were applied to pre-prepared Bond Elut-C18 extraction cartridges (3 mL; Agilent; Ser. No. 12/102,028), washed and eluted in MeCN. Eluates were dried under nitrogen and re-suspended in 60% methanol (LCMS grade methanol; CAS #67/56/1) before submission for analysis. Aqueous linearity for E2 and E1 were included for quantification.
Analysis of samples was undertaken on a XBridge BEH C18 column (Waters; #186003033) using 0.1% Diethyl Amine in MeCN (mobile phase A; DEA CAS #109-89-7) and 0.1% Diethyl Amine in milli-Q water (mobile phase B) in a 3 min gradient allowing 25% B. Analytes were detected in negative mode using MRM analysis, with E2 having a RT of 1.85 min and E1 having a RT of 2 min. Activity of the enzyme, in the absence of NAD^+, was used to evaluate specificity of conversion. Enzyme activity in the presence of test samples was expressed as a percentage of the uninhibited enzyme activity, and plotted versus inhibitor concentration. Non-linear regression was performed using a four-parameter logistic model and GraphPad Prism software (GraphPad Software, La Jolla, Calif.). All assessments were undertaken in duplicate evaluations and pooled during extraction process and subsequently injected as duplicates for LC-MS/MS analysis.

HSD17B13, sequence (Q7Z5P4 20-300): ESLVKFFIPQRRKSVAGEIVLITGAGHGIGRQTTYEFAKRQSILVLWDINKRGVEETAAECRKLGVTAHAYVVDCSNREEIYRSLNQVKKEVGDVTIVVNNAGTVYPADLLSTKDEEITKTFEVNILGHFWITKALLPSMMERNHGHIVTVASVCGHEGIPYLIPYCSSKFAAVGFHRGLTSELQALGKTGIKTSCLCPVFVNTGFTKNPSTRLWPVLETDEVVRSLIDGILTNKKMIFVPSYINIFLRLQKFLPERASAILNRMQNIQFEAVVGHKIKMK

Row | SMILES | IC50
1 | O=C(Nc1ncsc1C(=O)NCc1ccc(F)cc1F)c1cc(Cl)c(O)c(Cl)c1 [Example 28, 4-(3,5-dichloro-4-hydroxybenzamido)-N-(2,4-difluorobenzyl)thiazole-5-carboxamide] | 1000 to 10000 nM
2 | O=C(Nc1ncsc1C(=O)NCC1CCC(F)(F)CC1)c1cc(Cl)c(O)c(Cl)c1 [Example 30, 4-(3,5-dichloro-4-hydroxybenzamido)-N-((4,4-difluorocyclohexyl)methyl) thiazole-5-carboxamide] | 500 to 1000 nM
3 | COc1ccccc1CCn1cnc2cccc(NC(=O)c3cc(Cl)c(O)c(Cl)c3)c2c1=O [Example 36, 3,5-dichloro-4-hydroxy-N-(3-(2-methoxyphenethyl)-4-oxo-3,4-dihydroquinazolin-5-yl)benzamide] | 100 to 500 nM
4 | O=C(Nc1sc(Cl)cc1C(=O)NCCc1ccccc1OC(F)(F)F)c1cc(Cl)c(O)c(Cl)c1 [Example 38, 5-chloro-2-(3,5-dichloro-4-hydroxybenzamido)-N-(2-(trifluoromethoxy)phenethyl) thiophene-3-carboxamide] | 100 to 500 nM
5 | O=C(Nc1cccc2ncn(Cc3nncs3)c(=O)c12)c1cc(Cl)c(O)c(Cl)c1 [Example 39, N-(3-((1,3,4-thiadiazol-2-yl)methyl)-4-oxo-3,4-dihydroquinazolin-5-yl)-3,5-dichloro-4-hydroxybenzamide] | 1000 to 10000 nM
6 | O=C(Nc1cccc2ncn(Cc3cccc(C(F)(F)F)c3)c(=O)c12)c1cc(Cl)c(O)c(Cl)n1 [Example 40, 4,6-dichloro-5-hydroxy-N-(4-oxo-3-(3-(trifluoromethyl)benzyl)-3,4-dihydroquinazolin-5-yl)picolinamide] | 100 to 500 nM
7 | O=C(Nc1cccc2ncn(Cc3ccc(F)cc3)c(=O)c12)c1cc(Cl)c(O)c(Cl)n1 [Example 42, 4,6-dichloro-N-{3-[(4-fluorophenyl)methyl]-4-oxo-3,4-dihydroquinazolin-5-yl}-5-hydroxypyridine-2-carboxamide] | 100 to 500 nM
8 | CN1CCN(c2ccc(Cn3cnc4cccc(NC(=O)c5cc(Cl)c(O)c(Cl)c5)c4c3=O)cc2)CC1 [Example 45, 3,5-dichloro-4-hydroxy-N-(3-(4-(4-methylpiperazin-1-yl)benzyl)-4-oxo-3,4-dihydroquinazolin-5-yl)benzamide] | 1000 to 10000 nM
9 | N#Cc1cccc(Cn2cnc3cccc(NC(=O)c4cc(Cl)c(O)c(Cl)c4)c3c2=O)c1 [Example 48, 3,5-dichloro-N-(3-(3-cyanobenzyl)-4-oxo-3,4-dihydroquinazolin-5-yl)-4-hydroxybenzamide] | 100 to 500 nM
10 | O=C(Nc1cccc2ncn(Cc3cccc(OC(F)(F)F)c3)c(=O)c12)c1cc(Cl)c(O)c(Cl)n1 [Example 49, 4,6-dichloro-5-hydroxy-N-(4-oxo-3-(3-(trifluoromethoxy)benzyl)-3,4-dihydroquinazolin-5-yl)picolinamide] | 100 to 500 nM
11 | O=C(Nc1cccc2ncn(Cc3ccc(OC(F)(F)F)cc3)c(=O)c12)c1cc(Cl)c(O)c(Cl)n1 [Example 50, 4,6-dichloro-5-hydroxy-N-(4-oxo-3-(4-(trifluoromethoxy)benzyl)-3,4-dihydroquinazolin-5-yl)picolinamide] | 100 to 500 nM
12 | CS(=O)(=O)c1ccccc1Cn1cnc2cccc(NC(=O)c3cc(Cl)c(O)c(Cl)c3)c2c1=O [Example 51, 3,5-dichloro-4-hydroxy-N-(3-(2-(methylsulfonyl)benzyl)-4-oxo-3,4-dihydroquinazolin-5-yl)benzamide.] | 100 to 500 nM
13 | CC(C)(C)n1ccc(Cn2cnc3cccc(NC(=O)c4cc(Cl)c(O)c(Cl)c4)c3c2=O)n1 [Example 52, N-(3-((1-(tert-butyl)-1H-pyrazol-3-yl)methyl)-4-oxo-3,4-dihydroquinazolin-5-yl)-3,5-dichloro-4-hydroxybenzamide] | 500 to 1000 nM
14 | O=C(Nc1cccc2ncnc(NCc3ccccc3OC(F)F)c12)c1cc(Cl)c(O)c(Cl)c1 [Example 54, 3,5-dichloro-N-[4-({[2-(difluoromethoxy)phenyl]methyl}amino)quinazolin-5-yl]-4-hydroxybenzamide] | 1000 to 10000 nM
15 | Cn1ccc(Cn2cnc3cccc(NC(=O)c4cc(Cl)c(O)c(Cl)c4)c3c2=O)n1 [Example 56, 3,5-dichloro-4-hydroxy-N-{3-[(1-methyl-1H-pyrazol-3-yl)methyl]-4-oxo-3,4-dihydroquinazolin-5-yl}benzamide] | 500 to 1000 nM
16 | CC(C)(C)CCn1cnc2cccc(NC(=O)c3cc(Cl)c(O)c(Cl)c3)c2c1=O [Example 57, 3,5-dichloro-N-(3-(3,3-dimethylbutyl)-4-oxo-3,4-dihydroquinazolin-5-yl)-4-hydroxybenzamide] | 100 to 500 nM

Further lines, results first:

Row | IC50 | SMILES
17 | 100 to 500 nM | O=C(Nc1ncsc1C(=O)NCCc1ccccc1C(F)(F)F)c1cc(Cl)c(O)c(Cl)c1 [Example 25, 4-(3,5-dichloro-4-hydroxybenzamido)-N-(2-(trifluoromethyl)phenethyl) thiazole-5-carboxamide]
18 | 100 to 500 nM | O=C(Nc1ncsc1C(=O)NCc1ccccc1C(F)(F)F)c1cc(Cl)c(O)c(Cl)c1 [Example 26, 4-(3,5-dichloro-4-hydroxybenzamido)-N-(2-(trifluoromethyl)benzyl)thiazole-5-carboxamide]
19 | 100 to 500 nM | O=C(Nc1ncsc1C(=O)NCc1ccccc1OC(F)(F)F)c1cc(Cl)c(O)c(Cl)c1 [Example 27, 4-(3,5-dichloro-4-hydroxybenzamido)-N-(2-(trifluoromethoxy)benzyl)thiazole-5-carboxamide]
20 | 100 to 500 nM | O=C(Nc1ncsc1C(=O)NC1(c2ccc(F)cc2)CC1)c1cc(Cl)c(O)c(Cl)c1 [Example 29, 4-(3,5-dichloro-4-hydroxybenzamido)-N-(1-(4-fluorophenyl)cyclopropyl)thiazole-5-carboxamide]
21 | 100 to 500 nM | Cc1nsc(NC(=O)c2cc(Cl)c(O)c(Cl)c2)c1C(=O)NCc1ccccc1F [Example 31, 5-(3,5-dichloro-4-hydroxybenzamido)-N-(2-fluorobenzyl)-3-methylisothiazole-4-carboxamide]
22 | ≤ 100 nM | O=C(Nc1scnc1C(=O)NCc1ccccc1OC(F)(F)F)c1cc(Cl)c(O)c(Cl)c1 [Example 32, 5-(3,5-dichloro-4-hydroxybenzamido)-N-(2-(trifluoromethoxy)benzyl)thiazole-4-carboxamide]
23 | 100 to 500 nM | O=C(Nc1scnc1C(=O)NCc1ccccc1F)c1cc(Cl)c(O)c(Cl)c1 [Example 33, 5-(3,5-dichloro-4-hydroxybenzamido)-N-(2-fluorobenzyl)thiazole-4-carboxamide]
24 | ≤ 100 nM | O=C(Nc1scnc1C(=O)NCc1cccc(F)c1)c1cc(Cl)c(O)c(Cl)c1 [Example 34, 5-(3,5-dichloro-4-hydroxybenzamido)-N-(3-fluorobenzyl)thiazole-4-carboxamide]
25 | ≤ 100 nM | COc1ccccc1CCNC(=O)c1sccc1NC(=O)c1cc(Cl)c(O)c(Cl)c1 [Example 35, 3-(3,5-dichloro-4-hydroxybenzamido)-N-(2-methoxyphenethyl)thiophene-2-carboxamide]
26 | ≤ 100 nM | O=C(Nc1cc(Cl)sc1C(=O)NCc1ccccc1OC(F)(F)F)c1cc(Cl)c(O)c(Cl)c1 [Example 37, 5-chloro-3-(3,5-dichloro-4-hydroxybenzamido)-N-(2-(trifluoromethoxy)benzyl) thiophene-2-carboxamide]
27 | ≤ 100 nM | C[C@@H](c1cccc(F)c1)n1cnc2cccc(NC(=O)c3cc(Cl)c(O)c(Cl)n3)c2c1=O [Example 41, 4,6-dichloro-N-{3-[(1S)-1-(3-fluorophenyl)ethyl]-4-oxo-3,4-dihydroquinazolin-5-yl}-5-hydroxypyridine-2-carboxamide]
28 | ≤ 100 nM | O=C(Nc1cccc2ncn(Cc3ccccc3C(F)(F)F)c(=O)c12)c1cc(Cl)c(O)c(Cl)n1 [Example 43, 4,6-dichloro-5-hydroxy-N-(4-oxo-3-(2-(trifluoromethyl)benzyl)-3,4-dihydroquinazolin-5-yl)picolinamide]
29 | ≤ 100 nM | O=C(Nc1cccc2ncn(Cc3ccccc3F)c(=O)c12)c1cc(Cl)c(O)c(Cl)n1 [Example 44, 4,6-dichloro-N-(3-(2-fluorobenzyl)-4-oxo-3,4-dihydroquinazolin-5-yl)-5-hydroxypicolinamide]
30 | ≤ 100 nM | C[C@H](c1cccc(F)c1)n1cnc2cccc(NC(=O)c3cc(Cl)c(O)c(Cl)c3)c2c1=O [Example 47, (R)-3,5-dichloro-N-(3-(1-(3-fluorophenyl)ethyl)-4-oxo-3,4-dihydroquinazolin-5-yl)-4-hydroxybenzamide]
31 | ≤ 100 nM | N#Cc1ccccc1Cn1cnc2cccc(NC(=O)c3cc(Cl)c(O)c(Cl)c3)c2c1=O [Example 53, 3,5-dichloro-N-(3-(2-cyanobenzyl)-4-oxo-3,4-dihydroquinazolin-5-yl)-4-hydroxybenzamide]
